Consider 18 compounds from ChEMBL document CHEMBL5325443, “Discovery and structure-activity relationship of Morita-Baylis-Hillman adducts as larvicides against dengue mosquito vector, Aedes aegypti (Diptera: Culicidae)” (2023).

Each structure is given as a SMILES string. Converted amounts (≈) assume the structure as drawn. The source made the active and inactive calls. The rule behind the calls is not given here.

Assay [1] deals with Aedes aegypti. Briefly: Larvicidal activity against fourth instar Aedes aegypti larvae assessed as mortality rate at 100 ug/ml measured after 48 hrs relative to control. It counts as functional.
Assay [2] deals with Aedes aegypti. Put plainly: Larvicidal activity against fourth instar Aedes aegypti larvae assessed as lethal concentration measured after 48 hrs. It counts as functional.
The subject of assay [3] is Aedes aegypti. Briefly: Induction of morphological changes in fourth instar Aedes aegypti larvae assessed as loss in anal papillae at LC50 concentration measured after 48 hrs by scanning electron microscopic analysis. The assay is classed as functional, organism-based.
Assay [4] concerns Aedes aegypti. Briefly: Induction of morphological changes in fourth instar Aedes aegypti larvae assessed as damage in thorax at LC50 concentration measured after 48 hrs by scanning electron microscopic analysis. It counts as functional.
Assay [5] concerns Aedes aegypti. Briefly: Induction of morphological changes in fourth instar Aedes aegypti larvae assessed as modification in terminal abdomen in 6th to 8th segment at LC50 concentration measured after 48 hrs by scanning electron microscopic analysis. The assay is classed as functional, organism-based.

In the case of `C=C(C(=O)OCC)C(O)c1ccccc1Cl` (stereo not given), in the assay on Aedes aegypti [1], the mortality (as a rule, the share of the test organisms that died) at 100 µg/mL is 85%. For the same compound, the LC50 (usually the concentration lethal to half of the exposed cells or organisms) in the assay on Aedes aegypti [2] was determined as 86.7 mg/L (≈ 360 µM). As for `C=C(C(=O)OC)C(O)c1ccc(Cl)cc1` (stereo not given), in the assay on Aedes aegypti [1], the mortality at 100 µg/mL was found to be 81.7%. For the same compound, the LC50 with Aedes aegypti [2] stood at 88.2 mg/L (≈ 389 µM).

Regarding `CC[C@H]1CCC[C@H](O[C@H]2CC[C@H](N(C)C)[C@@H](C)O2)[C@@H](C)C(=O)C2=C[C@@H]3[C@@H](C=C[C@@H]4C[C@@H](O[C@@H]5O[C@@H](C)[C@H](OC)[C@@H](OC)[C@H]5OC)C[C@@H]34)[C@@H]2CC(=O)O1` [SPINOSYN A], the LC50 with Aedes aegypti [2] was 0.02 mg/L (≈ 0.0273 µM). As to `C=C(C(=O)OC)C(O)c1ccc(F)cc1` (stereo not given), in the assay with Aedes aegypti [1], the mortality at 100 µg/mL amounted to 16.7%.

On to `C=C(C(=O)OC)C(O)c1ccccc1Cl` (stereo not given), for which the mortality at 100 µg/mL in the assay on Aedes aegypti [1] was 21.7%. Turning to `COP(=S)(OC)Oc1ccc(Sc2ccc(OP(=S)(OC)OC)cc2)cc1` [TEMEFOS], the LC50 in the assay on Aedes aegypti [2] came out at 4.25 mg/L (≈ 9.11 µM). Turning to `C=C(C(=O)OCC)C(O)c1ccc(OC)cc1` (stereo not given), in the assay with Aedes aegypti [1], the mortality at 100 µg/mL came out at 21.7%. Turning to `C=C(C(=O)OC)C(O)/C=C/c1ccccc1` (stereo not given), the mortality at 100 µg/mL in the assay on Aedes aegypti [1] came out at 71.7%. Take `C=C(C(=O)OC)C(O)c1cc(OC)c(OC)c(OC)c1` (stereo not given): the mortality at 100 µg/mL with Aedes aegypti [1] was 16.7%. For the compound `C=C(C(=O)OCC)C(O)c1ccc([N+](=O)[O-])cc1` (stereo not given), the mortality at 100 µg/mL with Aedes aegypti [1] came to 16.7%. For `C=C(C(=O)OC)C(O)c1ccc2ccccc2c1` (stereo not given), in the assay on Aedes aegypti [1], the mortality at 100 µg/mL was found to be 88.3%. For the same compound, the LC50 in the assay on Aedes aegypti [2] is 77.7 mg/L (≈ 321 µM). Take `CC(COc1ccc(Oc2ccccc2)cc1)Oc1ccccn1` (stereo not given) [PYRIPROXYFEN]: the LC50 with Aedes aegypti [2] is 1.75 mg/L (≈ 5.45 µM). As to `CC[C@H]1CCC[C@H](O[C@H]2CC[C@H](N(C)C)[C@@H](C)O2)[C@@H](C)C(=O)C2=C[C@@H]3[C@@H](C=C(C)[C@@H]4C[C@@H](O[C@@H]5O[C@@H](C)[C@H](OC)[C@@H](OC)[C@H]5OC)C[C@@H]34)[C@@H]2CC(=O)O1` [SPINOSYN D], the LC50 with Aedes aegypti [2] worked out at 0.02 mg/L (≈ 0.0268 µM). For the compound `C=C(C(=O)OC)C(O)c1ccc(Br)cc1` (stereo not given), in the assay with Aedes aegypti [1], the mortality at 100 µg/mL was 51.7%.

As for `CC[C@H]1CCC[C@H](O[C@H]2CC[C@H](NC)[C@@H](C)O2)[C@@H](C)C(=O)C2=C[C@@H]3[C@@H](C=C[C@@H]4C[C@@H](O[C@@H]5O[C@@H](C)[C@H](OC)[C@@H](OC)[C@H]5OC)C[C@@H]34)[C@@H]2CC(=O)O1`, the LC50 with Aedes aegypti [2] stood at 0.02 mg/L (≈ 0.0279 µM). `C=C(C(=O)OCC)C(O)c1nccs1` (stereo not given): the mortality at 100 µg/mL with Aedes aegypti [1] was found to be 10%. Consider `C=C(C(=O)OC)C(O)c1ccc(-c2ccccc2)cc1` (stereo not given), for which, in the assay with Aedes aegypti [1], the mortality at 100 µg/mL is 93.3%. In addition, the outcome in the assay with Aedes aegypti [3] and with Aedes aegypti [5] was Active. For the same compound, in the assay on Aedes aegypti [4], the Activity worked out at 100%. Further, the LC50 in the assay with Aedes aegypti [2] was 41.4 mg/L (≈ 154 µM). `C=C(C(=O)OC)C(O)c1ccc(C)cc1` (stereo not given): the mortality at 100 µg/mL with Aedes aegypti [1] was 10%.
